Measurements published in ChEMBL document CHEMBL1128247, “Prediction of receptor properties and binding affinity of ligands to benzodiazepine/GABAA receptors using artificial neural networks” (J Med Chem, 1995).

The compounds below were run against GABA-A receptor; anion channel (assay: Binding affinity towards benzodiazepine/GABA A receptor.).
Assay type: protein-complex assay
Set-up: unit not given here

First: CC(C)(C)N1C(=O)CN=C(c2ccccc2)c2cc(Cl)ccc21
Second: O=C1CN=C(c2ccccc2)c2cc(Cl)ccc2N1CC(F)(F)F [HALAZEPAM]
The “Log IC50” value of the first is lower: -2.792 for the first, -1.964 for the second.

First: O=C1CN=C(c2ccccc2F)c2ccccc2N1
Second: O=C1CN=C(c2ccccc2F)c2cc(F)ccc2N1
The “Log IC50” value of the first is lower: -1.322 for the first, -0.869 for the second.

Compared with `O=C1Nc2ccc(Cl)cc2C(c2ccccc2F)=NC1Cl` (centres undefined), `O=C1CN=C(c2ccccc2F)c2cc(Cl)ccc2N1` is higher in “Log IC50” value: -0.724 for the first, -0.301 for the second.

Compared with `CN1C(=O)CN=C(c2ccccc2)c2cc(Cl)c(Cl)cc21`, `CN1C(=O)CN=C(c2ccccc2)c2cc(F)ccc21` is higher in “Log IC50” value: -1.602 for the first, -1.23 for the second.

Going from `CN1C(=O)CN=C(c2ccccc2F)c2cc(C#N)ccc21` to `CN1C(=O)CN=C(c2ccccc2F)c2cc(I)ccc21`, the “Log IC50” value rises from -1.477 to -0.462.

First: CC1N=C(c2ccccc2)c2cc(Cl)ccc2N(Cl)C1=O (centres undefined)
Second: CN1C(=O)C(O)N=C(c2ccccc2)c2cc(Cl)ccc21 (centres undefined) [TEMAZEPAM]
The “Log IC50” value of the first is lower: -1.69 for the first, -1.204 for the second.

`CN1C(=O)CN=C(c2ccccc2)c2cc(N)ccc21` and `CN1C(=O)CN=C(c2ccccc2)c2cc(C#N)ccc21` are within 0.2 log units of each other in “Log IC50” value: -2.663 for the first, -2.58 for the second.

`O=C1CN=C(c2c(F)cccc2F)c2ccccc2N1` and `O=C1CN=C(c2c(F)cccc2F)c2ccc(Cl)cc2N1` are within 0.2 log units of each other in “Log IC50” value: -1.279 for the first, -1.447 for the second.

First: O=C1CN=C(c2c(F)cccc2F)c2cc(Cl)ccc2N1
Second: CN1C(=O)CN=C(c2c(F)cccc2F)c2cc(Cl)ccc21
The “Log IC50” value of the first is higher: -0.204 for the first, -0.613 for the second.

Compared with `O=C1CN=C(c2ccccc2C(F)(F)F)c2cc([N+](=O)[O-])ccc2N1`, `O=C1CN=C(c2ccccc2F)c2cc([N+](=O)[O-])ccc2N1` is higher in “Log IC50” value: -0.544 for the first, -0.176 for the second.

Going from `[N-]=[N+]=Nc1ccc2c(c1)C(c1ccccc1F)=NCC(=O)N2` to `Cc1ccc2c(c1)NC(=O)CN=C2c1ccccc1F`, the “Log IC50” value falls from -0.724 to -1.279.

First: CC(C)(C)N1C(=O)CN=C(c2ccccc2F)c2cc([N+](=O)[O-])ccc21
Second: CN1C(=O)CN=C(c2ccccc2Cl)c2cc([N+](=O)[O-])ccc21 [RO-054082]
The “Log IC50” value of the first is lower: -2.477 for the first, -0.342 for the second.

Compared with `C=Cc1ccc2c(c1)C(c1ccccc1)=NCC(=O)N2`, `O=Cc1ccc2c(c1)C(c1ccccc1)=NCC(=O)N2` is lower in “Log IC50” value: -1.38 for the first, -1.633 for the second.

Compared with `CCc1ccc2c(c1)C(c1ccccc1)=NCC(=O)N2`, `Nc1ccc2c(c1)C(c1ccccc1)=NCC(=O)N2` [7-AMINO-NITRAZEPAM] is lower in “Log IC50” value: -1.556 for the first, -2.587 for the second.

Compared with `CN1C(=O)CN=C(c2c(F)cccc2F)c2cc(Br)ccc21`, `CN1C(=O)CN=C(c2ccccc2F)c2cc(F)ccc21` is lower in “Log IC50” value: -0.38 for the first, -0.708 for the second.

Going from `CN1C(=O)CN=C(c2ccccc2Cl)c2ccccc21` to `CN1C(=O)CN=C(c2ccccc2F)c2ccccc21` [RO-054520], the “Log IC50” value falls from -0.58 to -1.146.

`CN1C(=O)CN=C(c2ccccc2F)c2cc(NO)ccc21` and `CN1C(=O)CN=C(c2ccccc2F)c2cc(N)ccc21` [7-AMINO-FLUNITRAZEPAM] are within 0.2 log units of each other in “Log IC50” value: -1.982 for the first, -1.813 for the second.

`CN1C(=O)CN=C(c2c(Cl)cccc2Cl)c2cc(Cl)ccc21` and `O=C1CN=C(c2c(Cl)cccc2Cl)c2cc(Cl)ccc2N1` [RO-223294] are within 0.2 log units of each other in “Log IC50” value: -0.74 for the first, -0.845 for the second.

Going from `Nc1ccc2c(c1)C(c1ccccc1Cl)=NCC(=O)N2` [7-AMINOCLONAZEPAM] to `O=C1CN=C(c2ccccc2Cl)c2cc(Cl)ccc2N1` [DELORAZEPAM], the “Log IC50” value rises from -1.875 to -0.255.

Compared with `O=C1CN=C(c2ccccc2Cl)c2cc([N+](=O)[O-])ccc2N1` [CLONAZEPAM], `O=C1CN=C(c2ccccc2)c2cc([N+](=O)[O-])ccc2N1` [NITRAZEPAM] is lower in “Log IC50” value: -0.255 for the first, -1 for the second.

First: COCN1C(=O)CN=C(c2ccccc2)c2cc([N+](=O)[O-])ccc21 [MOTRAZEPAM]
Second: O=C1CN=C(c2ccccc2)c2cc(Cl)ccc2N1 [NORDAZEPAM]
The “Log IC50” value of the first is lower: -2.633 for the first, -0.973 for the second.

First: O=C1CN=C(c2ccccc2)c2cc(C(F)(F)F)ccc2N1 [RO-052904]
Second: O=C1CN=C(c2ccccc2)c2cc(F)ccc2N1 [RO-053061]
The “Log IC50” value of the first is higher: -1.114 for the first, -1.602 for the second.
